Source: patent publication US4371465A, “Mammalian collagenase inhibitors” (American Home Products Corporation, priority 1981, dated 1983)

System: collagenase
Experiment: Collagenase inhibition (acetyl 14C collagen hydrolysis, procedure of Sellers et al.)
Assay type: biochemical
Conditions: 2 mM inhibitor; 35° C., 5 to 18 hours; Tris-CaCl2 pH 7.4; vs control devoid of inhibitor
Description: The inhibitory effect of the compounds of this invention toward collagenase was determined following the procedure of Sellers et al., Biochem J. 167 353-360 (1977) whereby the 2mM of the inhibitor being tested is incubated at 35° C. for from 5 to 18 hours (depending upon the potency of the collagenase) with collagen and collagenase (buffered with Tris®-CaCl2; pH 7.4). The collagen is acetyl ^14 C collagen. The samples are centrifuged and an aliquot removed for assay on a scintillation counter. Because native collagen forms insoluble fibrils under the test conditions, the supernatant liquid contains radioactivity as a measure of hydrolysis. The collagenase activity in the presence of 2mM inhibitor is compared to activity in a control devoid of inhibitor and the results reported as percent inhibition of collagenase activity. Each of the compounds of this invention have been established as active collagenase inhibitors by the test procedure.
The following example illustrates the preparation of a typical, representative compound of the invention. The precent inhibition of collagenase activity at the 2 mM polypeptide level in accordance with the previously described standard testing procedure is provided after the preparatory description is compared to D-penicillamine alone, the latter being a known collagenase inhibitor.

CC(C)(S)[C@@H](N)C(=O)O [D-penicillamine]
Percent inhibition collagenase: 39
